From patent publication US9926267B2, “Covalent inhibitors of K-Ras G12C” (Araxes Pharma LLC, priority 2013, dated 2018)

Each compound was assayed against T1, KRAS G12C 1-169, his-tagged protein, GDP-loaded (Homo sapiens, UniProt P01116, G12C) (assay: Biochemical assay: covalent binding to KRAS G12C, measured by mass spectrometry). Settings: Binding activity determined at 2 hrs; Table 8b.
T1 construct: KRAS G12C 1-169, his-tagged protein, GDP-loaded
T1 sequence (P01116 1-169 isoform P01116-2 G12C): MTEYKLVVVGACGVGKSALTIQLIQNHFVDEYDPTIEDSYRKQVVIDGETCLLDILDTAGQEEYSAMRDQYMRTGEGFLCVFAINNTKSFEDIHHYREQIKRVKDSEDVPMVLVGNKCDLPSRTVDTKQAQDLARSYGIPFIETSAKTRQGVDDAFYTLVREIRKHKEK
Protocol: Test compounds were prepared as 10 mM stock solutions in DMSO (Fisher cat#BP-231-100). KRAS G12C 1-169, his-tagged protein, GDP-loaded was diluted to 2 μm in buffer (20 mM Hepes, 150 mM NaCl, 1 mM MgCl2). Compounds were tested for activity as follows:
Compounds were diluted to 50× final test concentration in DMSO in 96-well storage plates. Compound stock solutions were vortexed before use and observed carefully for any sign of precipitation. Dilutions were as follow: • For 100 μM final compound concentration, compounds were diluted to 5000 μM (5 μl 10 mM compound stock+5 μl DMSO and mixed well by pipetting. • For 30 μM final compound concentration, compounds were diluted to 1500 μM (3 μl 10 mM compound stock+17 μl DMSO) and mixed well by pipetting. • For […] final compound concentration, compounds were diluted to 500 μM (2 μl 10 mM compound stock+38 μl DMSO) and mixed well by pipetting. 49 μl of the stock protein solution was added to each well of a 96-well PCR plate (Fisher cat#1423027). 1 μl of the diluted 50× compounds were added to appropriate wells in the PCR plate using 12-channel pipettor. Reactions were mixed carefully and thoroughly by pipetting up/down with a 200 μl multi-channel pipettor. The plate was sealed well with aluminum plate seal, and stored in a drawer at room temperature for 2 hrs or 24 hrs. 5 μl of 2% formic acid (Fisher cat#A117) in DI H2O was then added to each well followed by mixing with a pipette. The plate was then resealed with aluminum seal and stored on dry ice until analyzed as described below.
The above described assays were analyzed by mass spectrometry according to the following procedure:
The MS instrument is set to positive polarity, 2 GHz resolution, and low mass (1700) mode and allowed to equilibrate for 30 minutes. The instrument is then calibrated, switched to acquisition mode and the appropriate method loaded.
After another 30 minute equilibration time, a blank batch (i.e., buffer) is run to ensure equipment is operating properly. The samples are thawed at 37° C. for 10 minutes, briefly centrifuged, and transfer to the bench top. Wells A1 and H12 are spiked with 1 uL 500 uM internal standard peptide, and the plates centrifuged at 2000×g for 5 minutes. The method is then run and masses of each individual well recorded.
The masses (for which integration data is desired) for each well are pasted into the platemap and exported from the analysis. Masses for the internal standards are exported as well. The data at 50 ppm is extracted for the +19 charge state, and identity of well A1 is assigned using the internal standard spike and integrated. Peak data is exported as a TOF list and the above steps are repeated individually, for the +20, 21, 22, 23, 24, and charge states.
For `C=CC(=O)N1CCN(C(=O)c2cc(-c3ccc(Cl)cc3)c(Cl)cc2O)CC1C#N` (stereo not shown) [VI-37, 1-Acryloyl-4-(4′,6-dichloro-4-hydroxy-[1,1′-biphenyl]-3-carbonyl)piperazine-2-carbonitrile], the Binding % was “++ (++ indicates binding activity greater than 20%)”. `C=CC(=O)N1CCN(C(=O)c2cc(-c3cc(Cl)ccc3Cl)c(Cl)cc2O)CC1C#N` (stereo not shown) [VI-38, 1-acryloyl-4-(2′,5′,6-trichloro-4-hydroxybiphenyl-carbonyl)piperazine-2-carbonitrile] was tested, and the Binding % was “++ (++ indicates binding activity greater than 20%)”. For `C=CC(=O)N1CCN(C(=O)c2cc(Cl)c(-c3ccccc3Cl)cc2O)CC1` [VI-41, 1-(4-(2,2′-dichloro-5-hydroxybiphenyl-carbonyl)piperazin-1-yl)prop-2-en-1-one], the Binding % was “+ (+ indicates binding activity from 5% to 20%)”. With `C=CC(=O)N1CCN(C(=O)c2cc(Cl)c(-c3cccc(Cl)c3)cc2O)CC1` [VI-43, 1-(4-(2,3′-dichloro-5-hydroxybiphenyl-carbonyl)piperazin-1-yl)prop-2-en-1-one] the Binding % was “+ (+ indicates binding activity from 5% to 20%)”.

Same assay, conditions: Binding activity determined at 24 hrs; Table 8a
`C=CC(=O)N1CCN(C(=O)c2ccc(Cl)c(-c3ccccc3Cl)c2)CC1` [VI-12, 1-(4-(2′,6-dichlorobiphenyl-carbonyl)piperazin-1-yl)prop-2-en-1-one] was tested, and the Binding % was “+++ (+++ indicates binding activity greater than 20% and up to 30%)”. `C=CC(=O)NC1CN(C(=O)c2cc(-c3ccccc3Cl)c(Cl)cc2O)C1` [VI-13, N-(1-(2′,6-dichloro-4-hydroxybiphenyl-carbonyl)azetidin-3-yl)acrylamide] was tested, and the Binding % was “+ (+ indicates binding activity from 5% to 10%)”. In the case of `C=CC(=O)N1CC(NC(=O)c2cc(-c3ccccc3Cl)[nH]n2)C1` [VI-14, N-(1-acryloylazetidin-3-yl)-3-(2-chlorophenyl)-1H-pyrazole-5-carboxamide], the Binding % is reported as “+ (+ indicates binding activity from 5% to 10%)”. For `C=CC(=O)NC1CN(C(=O)c2cc(-c3ccccc3Cl)[nH]n2)C1` [VI-15, N-(1-(3-(2-chlorophenyl)-1H-pyrazole-5-carbonyl)azetidin-3-yl)acrylamide], the Binding % was “+ (+ indicates binding activity from 5% to 10%)”. With `C=CC(=O)N1CCN(C(=O)c2cc(-c3cccs3)[nH]n2)CC1` [VI-16, 1-(4-(5-(thiophen-2-yl)-1H-pyrazole-3-carbonyl)piperazin-1-yl)prop-2-en-1-one] the Binding % was “+ (+ indicates binding activity from 5% to 10%)”. In the case of `C=CC(=O)N1CCN(C(=O)c2cc(-c3cc(Cl)ccc3Cl)c(Cl)cc2O)CC1` [VI-17, 1-(4-(2′,5′,6-trichloro-4-hydroxybiphenyl-carbonyl)piperazin-1-yl)prop-2-en-1-one], the Binding % is reported as “++++ (++++ indicates binding activity greater than 30%)”. `C=CC(=O)N1CCN(C(=O)c2csc(-c3ccccc3Cl)n2)CC1` [VI-18, 1-(4-(2-(2-chlorophenyl)thiazole-4-carbonyl)piperazin-1-yl)prop-2-en-1-one] was tested, and the Binding % was “+ (+ indicates binding activity from 5% to 10%)”. In the case of `C=CC(=O)N1CCN(C(=O)c2nc(-c3ccccc3Cl)cs2)CC1` [VI-19, 1-(4-(4-(2-chlorophenyl)thiazole-2-carbonyl)piperazin-1-yl)prop-2-en-1-one], the Binding % is reported as “+ (+ indicates binding activity from 5% to 10%)”. With `C=CC(=O)N1CCN(C(=O)c2nc(-c3ccccc3Cl)sc2Cl)CC1` [VI-20, 1-(4-(5-chloro-2-(2-chlorophenyl)thiazole-4-carbonyl)piperazin-1-yl)prop-2-en-1-one] the Binding % was “+ (+ indicates binding activity from 5% to 10%)”. In the case of `C=CC(=O)N1CCN(C(=O)c2cc(-c3ccccc3Cl)c[nH]2)CC1` [VI-21, 1-(4-(4-(2-chlorophenyl)-1H-pyrrole-2-carbonyl)piperazin-1-yl)prop-2-en-1-one], the Binding % is reported as “++ (++ indicates binding activity greater than 10% and up to 20%)”. `C=CC(=O)N1CCN(C(=O)c2nc(-c3ccccc3Cl)c(C)s2)CC1` [VI-22, 1-(4-(4-(2-chlorophenyl)-5-methylthiazole-2-carbonyl)piperazin-1-yl)prop-2-en-1-one] was tested, and the Binding % was “+ (+ indicates binding activity from 5% to 10%)”. For `C=CC(=O)N1CCN(C(=O)c2cc(-c3ccccc3Cl)c(C)[nH]2)CC1` [VI-23, 1-(4-(4-(2-chlorophenyl)-5-methyl-1H-pyrrole-2-carbonyl)piperazin-1-yl)prop-2-en-1-one], the Binding % was “+++ (+++ indicates binding activity greater than 20% and up to 30%)”. With `CN(C)C/C=C/C(=O)N1CCN(C(=O)c2cc(-c3ccccc3Cl)c(Cl)cc2O)CC1` [VI-24, (E)-1-(4-(2′,6-dichloro-4-hydroxy-[1,1′-biphenyl]-3-carbonyl)piperazin-1-yl)-4-(dimethylamino)but-2-en-1-one] the Binding % was “++++ (++++ indicates binding activity greater than 30%)”. In the case of `C=CC(=O)N1CCN(C(=O)c2cc(O)cc(-c3ccccc3Cl)c2)CC1` [VI-25, 1-(4-(2′-Chloro-5-hydroxy-[1,1′-biphenyl]-3-carbonyl)piperazin-1-yl)prop-2-en-1-one], the Binding % is reported as “+++ (+++ indicates binding activity greater than 20% and up to 30%)”. With `C=CC(=O)N1CCN(C(=O)c2cc(-c3ccccc3Cl)ccc2O)CC1` [VI-26, 1-(4-(2′-chloro-4-hydroxybiphenyl-carbonyl)piperazin-1-yl)prop-2-en-1-one] the Binding % was “++ (++ indicates binding activity greater than 10% and up to 20%)”. `C=CC(=O)N1CCN(C(=O)c2cc(O)c(Cl)c(-c3ccccc3Cl)c2)CC1` [VI-27] was tested, and the Binding % was “+++ (+++ indicates binding activity greater than 20% and up to 30%)”. In the case of `C=CC(=O)N1CCN(C(=O)c2cn(-c3cc(Cl)ccc3Cl)c(=O)cc2O)CC1` [VI-28, 5-(4-acryloylpiperazine-1-carbonyl)-1-(2,5-dichlorophenyl)-4-hydroxypyridin-2(1H)-one], the Binding % is reported as “++ (++ indicates binding activity greater than 10% and up to 20%)”. In the case of `C=CC(=O)N1CCN(C(=O)c2cc(-c3ccccc3)c(Cl)cc2O)CC1` [VI-29, 1-(4-(6-chloro-4-hydroxybiphenyl-carbonyl)piperazin-1-yl)prop-2-en-1-one], the Binding % is reported as “+++ (+++ indicates binding activity greater than 20% and up to 30%)”. For `C=CC(=O)N1CCN(C(=O)c2cc(-c3ccccc3Cl)c(Cl)[nH]2)CC1` [VI-30, 1-(4-(5-chloro-4-(2-chlorophenyl)-1H-pyrrole-2-carbonyl)piperazin-1-yl)prop-2-en-1-one], the Binding % was “++ (++ indicates binding activity greater than 10% and up to 20%)”. In the case of `C=CC(=O)N1CCN(C(=O)c2cc(-c3cc(Cl)ccc3Cl)c[nH]2)CC1` [VI-31, 1-(4-(4-(2,5-dichlorophenyl)-1H-pyrrole-2-carbonyl)piperazin-1-yl)prop-2-en-1-one], the Binding % is reported as “+ (+ indicates binding activity from 5% to 10%)”. For `C=CS(=O)(=O)NC1CCN(C(=O)c2ccc(Cl)c(Cl)c2)CC1` [VI-33, N-(1-(3,4-dichlorobenzoyl)piperidin-4-yl)ethenesulfonamide], the Binding % was “+ (+ indicates binding activity from 5% to 10%)”. `C=CS(=O)(=O)N1CCN(C(=O)c2ccc(Cl)c(Cl)c2)CC1` [VI-34, (3,4-dichlorophenyl)(4-(vinylsulfonyl)piperazin-1-yl)methanone] was tested, and the Binding % was “+++ (+++ indicates binding activity greater than 20% and up to 30%)”. In the case of `C=CS(=O)(=O)N[C@H]1CCCN(C(=O)c2ccc(Cl)c(Cl)c2)C1` [VI-35, (S)-N-(1-(3,4-dichlorobenzoyl)piperidin-3-yl)ethenesulfonamide], the Binding % is reported as “++ (++ indicates binding activity greater than 10% and up to 20%)”. With `C=CC(=O)N1CCN(C(=O)c2ccc(Cl)c(Cl)c2)CC1` [VI-36, 1-(4-(3,4-dichlorobenzoyl)piperazin-1-yl)prop-2-en-1-one] the Binding % was “+ (+ indicates binding activity from 5% to 10%)”.
